We go through two compounds from patent US9420796B2 (priority 2013, dated 2016).

“And” between values parts separate entries of the source, which are not always exact repeats. Equal values may be shown once.

The test system of one data set is zebra mussels. The conditions noted are these: in vivo; cited from earlier work.
A further data set concerns adult mussels. More on the design: species or system zebra mussels. The conditions noted are these: in vivo.

In the case of `[K+].[O]=[Mn](=[O])(=[O])[O-]` [KMnO], the Mortality rate in the data set on zebra mussels is given as at most 10%.

For the compound `OCl` [NaOCl, sodium hypochlorite], the Mortality rate in the data set with zebra mussels is on record as at most 10%. Further, the “Day of treatment on which complete mortality was observed” value in the data set with adult mussels is 18 days and 23 days.
